Read-outs that look alike come from different tables or passages of the source.

Series [1] deals with MCF-10A cells. The experiment in a line: Antiproliferative assay in vitro (SRB). It is filed as cell-based, human. The settings on record: read-out: Average IC50 ± SD, MCF-10A line. How it is done: (§1) Antiproliferative tests were performed on a normal human breast cell line, MCF-10A, and a mouse embryonic fibroblast: Balb/3T3. Both cell lines were obtained from the American Type Culture Collection (Rockville, MD, USA). The cell lines were maintained in the Institute of Immunology and Experimental Therapy, Wroclaw, Poland. MCF-10A cells were cultured in the F-12 nutrient mixture (Gibco, Scotland, UK), supplemented with 5% horse serum (Gibco, Scotland, UK), […] (Vibrio cholerae Pacini), 10 μg/mL of hydrocortisone and 20 ng/mL of human epidermal growth factor (all from Sigma-Aldrich, Chemie GmbH, Steinheim, Germany). Balb/3T3 cells were cultured in Dulbecco medium (Gibco, Darmstadt, Germany) supplemented with 10% fetal bovine serum (Thermo Fisher Scientific, Waltham, MA, USA) and 2 mM l-glutamine (Sigma-Aldrich, St. Louis, MO, USA). All culture media contained antibiotics: 100 U/mL penicillin (Sigma-Aldrich, St. Louis, MO, USA) and 100 µg/mL streptomycin (Polfa-Tarchomin, Warsaw, Poland). Both cell lines were cultured during the entire experiment in a humid atmosphere at 37 °C and 5% CO2. Amistar 250 SC (fungicide) with active compound azoxystrobin was provided by the Institute of Soil Science and Plant Cultivation, National Research Institute in Pulawy, Department of Weed Science and Tillage Systems in Wroclaw, Poland […].
(§2) Twenty-four hours prior to the applications of the tested compounds, MCF-10A and Balb/3T3 cells were plated in 96-well plates at a density of 10^4 cells per well and cultured at 37 °C in a humid atmosphere saturated with 5% CO2 for 24 h. Stock solutions of the compounds were prepared ex tempore for each test by dissolving in DMSO. The cells were also exposed to the reference drugs: cis-platin (Accord, London, UK) (10–0.01 µg/mL) and DMSO (Sigma-Aldrich) (at the concentrations corresponding to those in the tested agent dilutions). The solutions were then diluted in culture medium RPMI 1640 + Opti-MEM (1:1) (both from Gibco, Scotland, UK), supplemented with 2 mM l-glutamine, 5% fetal bovine serum (all from Sigma-Aldrich Chemie GmbH, Steinheim, Germany). An assay was performed after 72 h of exposure to the tested compounds 13, 17, 18, 19, 25, 27, 30, 4-hba, 4-hbah, and 3,4,5-hba (0.5, 5.0, 50, and to 500 µM) and azoxystrobin fungicide (0.05, 0.5, 5.0 and 50 µM). The antiproliferative effect in vitro was determined by the SRB method (sulforhodamine B colorimetric assay). The optical densities of the samples were measured on the Synergy H4 photometer (BioTek Instruments, Winooski, VT, USA) at 540 nm. The results were calculated as 50% inhibitory concentration (IC50), namely the dose of the tested compound inhibiting proliferation of the tested cells by 50% as compared to the untreated control cells, in the Prolab-3 system based on Cheburator 0.4 software using the two-point method. Each test was repeated 3–5 times.
(§3) Cytotoxicity was performed on two normal cell lines: MCF -10A and Balb/3T3, using as controls cis-platin in the concentrations of 0.03 32, 0.3 32, 3.32 and 33.2 µM and azoxystrobin fungicide in the […]
(§4) were tested in the concentrations of 0.5, 5.0, 50, and 500 µM. The relation of compound concentration […]
(§5) Further, a comparison of the influence of each tested concentration in the group of tested compounds on cell lines was illustrated in Figure S130 a (MCF-10A) and b (Balb/T3T).
(§6) Table S4. Cytotoxicity results for compounds 13, 17, 18, 19, 25, 27, and 30 investigated on normal mammalian lines: MCF -10A and B alb/3T3 using Azoxystrobin (fungicide) and cis-platin as reference compounds.
(§7) Cytotoxicity profile presented as proliferation inhibition, % (y -axis) in the function of compound concentration, […]
(§8) Structure MCF-10A Balb/3T3
(§9) Proliferation inhibition [%] […]

Series [2] has as its system Balb/3T3 cells. Description: Antiproliferative assay in vitro (SRB). It is filed as cell-based, mouse. To be noted: read-out: Average IC50 ± SD, Balb/3T3 line. Here is the method: as §1, §2, §3, §4, §5, §6, §7, §8, §9
The subject of series [3] is S. sclerotiorum. The settings on record: cited from earlier work.
Series [4] relates to acetylcholinesterase (AChE). The arrangement: method as in PMID 33668452. The settings on record: cited from earlier work.
Series [5] deals with B. cinerea. The settings on record: cited from earlier work.
Series [6] concerns the target MPO (myeloperoxidase). The arrangement: method as in PMID 32278712. To be noted: cited from earlier work.
Series [7] concerns Sclerotinia sclerotiorum strain FSc10. The experiment in a line: In vitro antifungal activity, mycelial growth inhibition on PDA medium. It is filed as cell-based. To be noted: screening at basal 50 µg/mL, PDA medium, mean ± SD of three determinations. How it is done: (§10) The cultures of Botrytis cinerea strain FBc05 and Sclerotinia sclerotiorum strain FSc10 were obtained from the collection of the Division of Plant Pathology and Mycology at the Department of Plant Protection of Wroclaw University of Environmental and Life Sciences (Poland). Cerrena unicolor (Bull.ex.Fr.) Murr, strain no. 139, originated from the culture collection of the Department of Biochemistry, University of Lublin (Poland). The stock cultures were maintained on potato dextrose agar at +4 °C and periodically transferred to a fresh medium.
(§11) Prior to the fungicidal activity assay of hydrazide–hydrazones 1–35, we considered ethanol and DMSO as potential dissolution media for tested compounds. […] Furthermore, a very important aspect of biological testing is the careful selection of organic solvents. These are typically used, e.g., methanol, ethanol, acetone, and DMSO, and may be highly toxic for microorganisms in even very low concentrations, such as 1% (v/v). Ethanol and DMSO with a final concentration between 0.1 and 1.0% (v/v) in a PDA medium were used and applied to evaluate the inhibition growth of B. cinerea, S. sclerotiorum, and C. unicolor (see Supplementary Materials). The following procedure was applied to the microorganism testing. The assays of fungi inhibition growth were performed at a basal concentration of 50 µg/mL for all compounds, and detailed experiments were extended for testing between 0 and 50 µg/mL (0, 6.25, 12.5, 25.0, and 50.0 µg/mL) for selected compounds. The tests were carried out on Petri dishes (diameter 60 mm) with PDA medium containing appropriate compound, co-solvent control, and hydrazide–hydrazone dissolved in co-solvent assay. A piece of mycelium with a 5 mm edge taken from the outer edge of the growing fungi on the PDA plate with co-solvent was transferred to a central part of the PDA plate with the examined compound. The plates thus inoculated were incubated at 22 °C in the dark for a time when the control plate containing only the co-solvent was covered entirely with the tested microorganism. For B. cinerea and S. sclerotiorum, the test took 3 days, and for C. unicolor, it took 7 days. Each assay was performed at least in triplicate. […] Model parameters c and e were estimated using the nonlinear least-squares method. Parameters d and b (with two exceptions) were fixed and assumed to be equal. Based on estimated parameters, the values of IC50 were determined. […] The IC50 values were calculated only in cases when the model predicted a decrease in growth rate by more than 50%.
(§12) In vitro antifungal activity
(§13) Prior to the fungicidal activity assay of hydrazide-hydrazones 1–35, we considered ethanol (EtOH) and DMSO as potential dissolution media for tested compounds.
(§14) EtOH and DMSO with a final concentration between 0.1–1.0% (v/v) in a PDA medium were applied to evaluate the inhibition growth of B. cinerea, S. sclerotiorum, and C. unicolor (see Table S3). The following procedure was applied to the microorganism testing with the hydrazide-hydrazones. The assays of fungi inhibition growth were performed at a basal concentration of 50 µg/mL for all compounds, and detailed experiments were extended for testing selected molecules 18, 19, 27, […]
(§15) Table S2. In vitro antifungal activity for DMSO and ethanol co-solvents.

The subject of series [8] is Botrytis cinerea strain FBc05. The series is described as above. It counts as cell-based. To be noted: screening at basal 50 µg/mL, PDA medium, mean ± SD of three determinations; for inhibition of growth at 50 µg/mL: Botrytis cinerea, FBC05, read-out: fungal growth inhibition, B. cinerea. Here is the method: as §10, §11, §12, §13, §14, §15
Series [9] concerns Cerrena unicolor strain no. 139. Described as above. The settings on record: Cerrena unicolor, NO.139; screening at basal 50 µg/mL, PDA medium, mean ± SD of three determinations; read-out: fungal growth inhibition, C. unicolor. It counts as cell-based. Here is the method: as §10, §11, §12, §13, §14, §15
The target in series [10] is laccase from Trametes versicolor. To be noted: read-out: Laccase inhibition, Ki; cited from earlier work.
For series [11], the system named is Candida. The arrangement: method as in PMID 23142671. To be noted: cited from earlier work.

With `O=C(O)c1cc(O)c(O)c(O)c1` [3,4,5-hba, gallic acid, reference compound], the IC50 was determined as 174 ± 14.3 µM in series [1] (Homo sapiens, MCF-10A, 72 h) and 163 ± 1.95 µM in series [2] (Mus musculus, BALB/3T3, 72 h).

On to `O=C(NN=Cc1cn(-c2ccccc2Cl)nn1)c1ccccc1` [((1-(2-chlorophenyl)-1H-1,2,3-triazol-4-yl)methylene)benzohydrazide], for which, in series [3] (25 µg/mL), the “activity against S. sclerotiorum” value was “inactive”.

Turning to `COc1ccc(/C=N/NC(=O)c2cn(C)c3ccccc3c2=O)cc1OC` [(E)-N′-(3,4-dimethoxybenzylidene)-1-methyl-4-oxo-1,4-dihydroquinoline-3-carbohydrazide], the “S. sclerotiorum growth inhibition” value in [3] was “more than 80%”.

For `Cn1cc(C(=O)N/N=C/c2cc3ccccc3[nH]2)c(=O)c2ccccc21` [(E)-N′-((1H-indol-2-yl)methylene)-1-methyl-4-oxo-1,4-dihydroquinoline-3-carbohydrazide], the “S. sclerotiorum growth inhibition” value in series [3] is given as “more than 80%”.

Turning to `CO/C=C(/C(=O)OC)c1ccccc1Oc1cc(Oc2ccccc2C#N)ncn1` [Azoxystrobin, reference compound], the IC50 in series [2] (72 h exposure, SRB method) is 0.1 ± 0.03 µM.

In the case of `N.N.[Cl][Pt][Cl]` [Cis-platin, reference compound], the IC50 in series [1] (72 h exposure, SRB method) turned out to be 9.27 ± 1.63 µM; in series [2] (72 h exposure, SRB method), 9.8 ± 1.93 µM.

Regarding `O=C(N/N=C/c1ccccc1O)c1ccc(C(F)(F)F)cc1` [IX], the BuChE/AChE selectivity in series [4] is 18.6.

On to `CC1N[C@H](C(=O)NN=Cc2ccc(Cl)c(Cl)c2)Cc2c1[nH]c1ccccc21` (stereo partly drawn) [N′-(3,4-dichloro-benzylidene)-(3S)-1-methyl-2,3,4,9-tetrahydro-1H-pyrido[3,4-b]indole-3-carbohydrazide], for which the “growth inhibition of S. sclerotiorum” value in series [3] is “more than 80%”. Moreover, in series [5], the “growth inhibition of B. cinerea” value is “more than 80%”.

Take `CC1N[C@H](C(=O)NN=Cc2ccc(C(C)(C)C)cc2)Cc2c1[nH]c1ccccc21` (stereo partly drawn) [N′-(4-tert-butyl-benzylidene)-(3S)-1-methyl-2,3,4,9-tetra-hydro-1H-pyrido [3,4-b]indole-3-carbohydrazide]: the “growth inhibition of S. sclerotiorum” value in [3] is listed as “more than 80%”. The “growth inhibition of B. cinerea” value in series [5] was “more than 80%”.

As to `Cc1ccc(C(=O)ON=C2C=CC(=NNC(=O)c3ccccc3)C=C2)cc1` [N′-(4-{[(4-methylbenzoyl)oxy]imino}cyclohexa-2,5-dien-1-ylidene)benzohydrazide], the “restriction of mycelium growth, B. cinerea” value in [5] is on record as 35%.

In the case of `O=C(N/N=C/c1cc(O)ccc1O)c1ccncc1` [X], the IC50 in [6] is 4.8 µM.

`O=C(N/N=C/c1ccc(O)cc1O)c1ccccc1` [compound 22]: the melting point (in general, the temperature of the solid-liquid transition) was 255 to 256 °C (dec.). The “fungal growth inhibition, S. sclerotiorum” value in [7] is listed as “n.o”. Also, the inhibition of growth at 50 µg/mL in [8] came to 32 ± 2.9%. The inhibition of growth at 50 µg/mL in series [9] worked out at 75.4 ± 6.2%.

Consider `O=C(N/N=C/c1cc(O)c(O)cc1O)c1ccc(O)cc1` [compound 23], for which the melting point is 253 °C (dec.). In [7] (Sclerotinia sclerotiorum, FSC10, read-out: fungal growth inhibition, S. sclerotiorum), the inhibition of growth at 50 µg/mL amounted to 2.7 ± 0.4%. Further, the inhibition of growth at 50 µg/mL in series [8] is 6.8 ± 2.5%. Further, the inhibition of growth at 50 µg/mL in series [9] was determined as 5.8 ± 2.7%.

Consider `COc1cc(/C=N/NC(=O)c2ccc(O)cc2)c(O)c(CO)c1` [compound 26, 4-Hydroxy-N′-[(E)-(2-hydroxy-3-hydroxymethyl-5-methoxyphenyl)methylidene]benzohydrazide], for which the melting point lay in the range of 219 to 220 °C. Besides, the “fungal growth inhibition, S. sclerotiorum” value in [7] is listed as “n.o”. Moreover, in [8], the inhibition of growth at 50 µg/mL was determined as 3.2 ± 0.5%. Also, the inhibition of growth at 50 µg/mL in series [9] came out at 54.6 ± 3.1%.

For `CC(=O)NN=Cc1cc(C)cc(C(C)(C)C)c1O` [compound 35], the Ki (as a rule, the dissociation constant of the complex between target and ligand, obtained from inhibition or displacement) in [10] is not below 1000 µM. For the same compound, the “fungal growth inhibition, S. sclerotiorum” value in series [7] is reported as “n.o”. The “fungal growth inhibition, B. cinerea” value in [8] is “n.o”. Moreover, the inhibition of growth at 50 µg/mL in series [9] is 45.7 ± 0.5%.

Consider `COc1ccc2c3c1O[C@H]1C[C@@H](O)C=C[C@@]31CCN(C)C2` [galantamine, reference compound], for which the BuChE/AChE selectivity in series [4] is 1.8.

Consider `CC(=O)N1CCN(c2ccc(OCC3COC(Cn4ccnc4)(c4ccc(Cl)cc4Cl)O3)cc2)CC1` (stereo not drawn) [ketoconazole, reference compound], for which the “MIC, anticandidal activity” value in series [11] is 1 to 31 µg/mL.

These data come from paper PMC11124341, “4-Hydroxybenzoic Acid-Based Hydrazide–Hydrazones as Potent Growth Inhibition Agents of Laccase-Producing Phytopathogenic Fungi That Are Useful in the Protection of Oilseed Crops” (Molecules, 2024).
